Experimental data reported in US20040137500A1, “Novel polypeptide” (Pfizer Inc, priority 2000, published 2004).

System: PFI-020
Test: FLIPR cell-based assay for agonist activation of PFI-020
Design: species or system human
Settings: 10 μM; PFI-020-transfected 293 cells (HEK 293 expressing mouse Gα15); Fluo3 FLIPR
Protocol: Fluorescence Imaging Plate Reader (FLIPR®) technology was employed as a means to detect activation of PFI-020 by agonists in a cell-based assay.
5×10^6 Human Embryonic Kidney (HEK) 293 cells expressing the mouse Gα15 gene (from here on called '293 cells′), were transiently transfected with 7.5 μg of PFI-020 (contained within the pcDNA4HIS-max-TOPO (Invitrogen) plasmid) vector, or vector alone, using Lipofectamine Plus® reagent (Gibco BRL) as per the manufacturer's protocol. The plasmid pcDNA4HIS-max-TOPO was used as it contains elements that up-regulate the level of gene transcription over standard pcDNA3.1 vectors. 24 hrs post-transfection, the cells were detached from the flask using Trypsin/EDTA solution (LTI) and seeded into a black sided, poly-D-lysine-treated, 96-well plate (Becton Dickinson) at 5×10^4 cells/well density. […] The FLIPR® processing involved reading the fluorescence for all samples for 2 minutes; during this time the fluorescence baseline was determined for the first 10 seconds. The desired amount of compound was then automatically transferred to the wells and the fluorescence was continuously monitored for the remainder of the time. […]
FIGS. 3, 4, 5 and 6 depict the action of various purinoceptor compounds at a concentration of 10 μM on PFI-020-transfected 293 cells, showing fluorescence intensity versus time (in seconds). […]

O=c1ccn([C@@H]2O[C@H](COP(=O)(O)OP(=O)(O)OP(=O)(O)O)[C@@H](O)[C@H]2O)c(=O)[nH]1 [UTP, Uridine triphosphate]
activation of PFI-020 (fluorescence intensity versus time): activated

Nc1nc(Cl)nc2c1ncn2[C@@H]1O[C@H](COP(=O)([O-])OP(=O)([O-])OP(=O)([O-])[O-])[C@@H](O)[C@H]1O.[Na+].[Na+].[Na+].[Na+] [2-chloro-ATP, 2-chloroadenosine triphosphate tetrasodium]
activation of PFI-020 (fluorescence intensity versus time): activated
